{"source": "paper PMC8767159", "about": "“Multiparameter Optimization of Trypanocidal Cruzain Inhibitors With In Vivo Activity and Favorable Pharmacokinetics” (Frontiers in Pharmacology, 2022)", "key": {"[1]": {"test": "In vitro metabolic stability in mouse liver microsomes", "format": "in vitro ADME", "details": "mouse, liver microsomes", "summary_of_the_method": "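Compounds incubated at 37°C with mouse or human liver microsomes (0.25 mg/ml) in potassium phosphate buffer with NADPH; samples quenched in ACN/MeOH at 0, 5, 10, 15, 20 and 30 min. Parent remaining by LC-MS/MS relative to 0 min; T½ = ln(2)/k, CLint = k*1000/0.25 (μL/min/mg).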"}, "[2]": {"test": "Experimental distribution coefficient (eLogD) by LC retention time", "format": "physicochemical", "details": "for chromatographic logD: C18 column (LC retention time)", "experimental": "For the eLogD assays ([Waring, 2010]), each compound (5 μl) from a 5 mM stock solution was diluted in 245 μl of a solution containing buffers A (5% MeOH, 10 mM ammonium acetate, pH 7.4) and B (100% MeOH, pH 7.4) (50:50). Nine control compounds with known eLogD and column retention times (acyclovir, atenolol, antipyrine, fluconazole, metoprolol, carbamazepine, ketoconazole, tolnaftate, and amiodarone; eLogD values ranging from −1.86 to 6.1) were subjected to LC-MS/MS in triplicate before and after the analysis of the test compounds. Retention times were recorded for each control and test compound in a C18 column. The retention time of each control compound was plotted against the respective eLogD values described in the literature ([Lombardo et al., 2002]; [Lombardo et al., 2004]; [Alelyunas et al., 2010]). The resulting linear equation (y = mx + b) was used to calculate the eLogD values of the test compounds, in which x is the retention time in minutes and y is the eLogD value."}}, "note": "Like-named read-outs stand apart in the source and are kept apart here.", "data": [{"smiles": "O=C(Cn1ccnc1[N+](=O)[O-])NCc1ccccc1", "note": "[BZ, benznidazole, reference compound]", "values": [{"measurement": "CLint scaled at 5 µM", "setting": "[1]; Table 5, CLint/fu, read-out: CLint_u (L/h/kg) mouse (converted)", "result": 4.4, "unit": "L/h/kg"}, {"measurement": "CLint scaled at 5 µM", "setting": "[1]; Table 5, read-out: CLint (L/h/kg) mouse (converted)", "result": 4.4, "unit": "L/h/kg"}, {"measurement": "CLint scaled at 5 µM", "setting": "[1]; Table S5, CLint/fu, read-out: CLint_u (L/h/kg) Mouse (converted)", "result": 4.43, "unit": "L/h/kg"}, {"measurement": "CLint scaled at 5 µM", "setting": "[1]; Table S5, read-out: CLint (L/h/kg) Mouse (converted)", "result": 4.43, "unit": "L/h/kg"}, {"measurement": "chromatographic logD", "setting": "[2]; pH 7.4, Table 3, pH 7.4", "result": 0.84}, {"measurement": "chromatographic logD", "setting": "[2]; pH 7.4, Table 5", "result": 0.8}, {"measurement": "eLogD", "setting": "[2]; Table S5", "result": 0.84}]}]}
